Experimental findings from ChEMBL document CHEMBL1122707, “Pyrroloisoquinoline antidepressants. Potent, enantioselective inhibition of tetrabenazine-induced ptosis and neuronal uptake of norepinephrine, dopamine, and serotonin” (J Med Chem, 1984) are described below.

pKi: −log10 of the molar value.

The subject of experiment [1] is Mus musculus. The experiment in a line: Inhibition of tetrabenazine (TBZ)-induced ptosis in mice (administered ip). It is filed as functional.
In experiment [2] the test system is Mus musculus. The experiment in a line: Inhibition of tetrabenazine (TBZ)-induced depression of motor activity (MA) in mice (administered ip). Format: functional.
The target of experiment [3] is Sodium-dependent dopamine transporter (Rattus norvegicus, UniProt P23977). Kind of experiment: Inhibition of dopamine (DA) uptake into rat brain synaptosomes. It is filed as functional, subcellular.
Experiment [4] addresses Norepinephrine transporter (Rattus norvegicus, UniProt Q9WTR4). The experiment in a line: Inhibition of norepinephrine (NE) into rat brain synaptosomes. Format: functional, subcellular.
Experiment [5] has as its target Sodium-dependent serotonin transporter (Rattus norvegicus, UniProt P31652). Kind of experiment: Inhibition of serotonin (5-HT) uptake into rat brain synaptosomes. Format: subcellular.
For experiment [6], the system named is Mus musculus. Kind of experiment: Compound was evaluated for the inhibition of tetrabenazine (TBZ)-induced depression of motor activity (MA) in mice (administered sc). Format: functional.
Experiment [7] has as its system Mus musculus. The experiment in a line: Compound was evaluated for the inhibition of tetrabenazine (TBZ)-induced ptosis in mice (administered sc). Format: functional.
Where [8] appears, read: Mus musculus, ip, read-out: ED50.

Norepinephrine transporter, sequence (Q9WTR4 whole entry): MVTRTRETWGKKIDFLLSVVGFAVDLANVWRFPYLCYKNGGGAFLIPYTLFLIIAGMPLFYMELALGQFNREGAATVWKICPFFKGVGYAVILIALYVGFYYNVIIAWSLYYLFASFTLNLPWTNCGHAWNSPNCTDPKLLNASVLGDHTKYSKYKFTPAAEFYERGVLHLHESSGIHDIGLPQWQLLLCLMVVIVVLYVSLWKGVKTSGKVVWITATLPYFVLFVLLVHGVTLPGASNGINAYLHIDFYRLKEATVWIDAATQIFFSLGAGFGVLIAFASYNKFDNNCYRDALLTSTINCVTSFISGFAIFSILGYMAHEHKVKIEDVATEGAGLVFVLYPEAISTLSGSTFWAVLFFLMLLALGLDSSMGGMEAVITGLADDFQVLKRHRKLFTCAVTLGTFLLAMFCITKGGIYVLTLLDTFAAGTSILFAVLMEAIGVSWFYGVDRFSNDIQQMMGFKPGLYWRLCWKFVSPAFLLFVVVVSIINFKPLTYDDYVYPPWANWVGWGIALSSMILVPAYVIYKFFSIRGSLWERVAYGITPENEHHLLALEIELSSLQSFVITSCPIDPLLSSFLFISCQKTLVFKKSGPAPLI
Sodium-dependent dopamine transporter, sequence (P23977 whole entry): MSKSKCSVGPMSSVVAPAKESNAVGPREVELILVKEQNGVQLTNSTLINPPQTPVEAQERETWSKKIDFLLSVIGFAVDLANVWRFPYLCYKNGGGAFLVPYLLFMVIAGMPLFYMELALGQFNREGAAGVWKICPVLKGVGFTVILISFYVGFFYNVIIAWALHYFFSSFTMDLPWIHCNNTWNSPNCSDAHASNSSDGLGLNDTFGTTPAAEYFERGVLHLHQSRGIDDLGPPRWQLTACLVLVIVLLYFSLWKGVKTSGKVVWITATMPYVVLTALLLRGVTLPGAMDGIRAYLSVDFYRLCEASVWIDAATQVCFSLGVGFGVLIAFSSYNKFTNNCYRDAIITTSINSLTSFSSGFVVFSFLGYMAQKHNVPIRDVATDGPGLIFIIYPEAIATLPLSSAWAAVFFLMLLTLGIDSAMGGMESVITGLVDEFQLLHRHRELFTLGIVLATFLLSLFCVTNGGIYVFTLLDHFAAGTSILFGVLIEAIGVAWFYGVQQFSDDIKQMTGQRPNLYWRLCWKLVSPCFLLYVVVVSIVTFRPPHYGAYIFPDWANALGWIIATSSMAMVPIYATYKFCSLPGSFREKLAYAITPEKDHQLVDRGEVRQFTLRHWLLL
Sodium-dependent serotonin transporter, sequence (P31652 whole entry): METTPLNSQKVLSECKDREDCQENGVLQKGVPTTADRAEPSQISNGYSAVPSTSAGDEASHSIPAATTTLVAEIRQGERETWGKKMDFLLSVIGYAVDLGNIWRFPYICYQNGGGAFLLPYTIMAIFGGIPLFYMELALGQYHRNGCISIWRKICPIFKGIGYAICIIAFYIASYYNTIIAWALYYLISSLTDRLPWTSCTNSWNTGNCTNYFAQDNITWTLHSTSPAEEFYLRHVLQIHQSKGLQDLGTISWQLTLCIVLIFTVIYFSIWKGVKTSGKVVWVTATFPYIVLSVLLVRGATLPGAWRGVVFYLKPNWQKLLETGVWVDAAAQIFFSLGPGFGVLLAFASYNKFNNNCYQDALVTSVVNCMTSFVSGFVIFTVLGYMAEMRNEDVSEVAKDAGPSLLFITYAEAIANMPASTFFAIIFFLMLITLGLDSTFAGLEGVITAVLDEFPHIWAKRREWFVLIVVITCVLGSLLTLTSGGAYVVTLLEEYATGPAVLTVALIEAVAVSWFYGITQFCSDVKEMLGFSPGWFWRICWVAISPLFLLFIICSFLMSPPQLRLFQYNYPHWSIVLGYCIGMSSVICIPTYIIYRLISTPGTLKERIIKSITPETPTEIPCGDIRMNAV

Regarding `c1ccc([C@H]2CN3CCC[C@H]3c3ccccc32)cc1`, the ED50 is 0.07 mg/kg in the experiment with Mus musculus [1] (setting [8]) and 0.34 mg/kg with Mus musculus [2].
`Clc1ccc(C2CN3CCC[C@H]3c3ccccc32)cc1Cl` (stereo not given in full): the figures for the ED50 in the experiment with Mus musculus [1] (setting [8]) and in the experiment on Mus musculus [2] were 0.14 mg/kg and 0.39 mg/kg, respectively. For the same compound, the figures for the pKi in experiment [3] and in experiment [4] were 9.00 and 9.17, respectively.
On the same counts, the results for `c1ccc(C2CN3CCCCC3c3ccccc32)cc1` (stereo not given) are above 30 mg/kg, above 30 mg/kg, below 6.30 and 7.70.
With `Br.Nc1ccc([C@@H]2CN3CCC[C@H]3c3ccccc32)cc1`, the ED50 in the experiment on Mus musculus [1] (setting [8]) was found to be 0.4 mg/kg; with Mus musculus [2] it was 1.4 mg/kg. Further, the pKi was 7.52 in experiment [3] and 8.00 in experiment [4].
The corresponding values for `Br.Nc1ccc([C@H]2CN3CCC[C@H]3c3ccccc32)cc1` are 0.02 mg/kg, above 1 mg/kg, 9.07 and 9.70.
For the compound `Cl.FC(F)(F)c1cccc([C@H]2CN3CCC[C@H]3c3ccccc32)c1`, the figures for the ED50 in the experiment with Mus musculus [1] (setting [8]) and in the experiment on Mus musculus [2] were 0.43 mg/kg and 1.2 mg/kg, respectively. Besides, the negative-log Ki (pKi) in experiment [3] is 7.27; in experiment [4], 9.02.
The corresponding values for `Cl.FC(F)(F)c1cccc([C@@H]2CN3CCC[C@H]3c3ccccc32)c1` are above 60 mg/kg, above 60 mg/kg, below 6.00 and below 7.00.
Consider `CSc1ccc([C@@H]2CN3CCC[C@H]3c3ccccc32)cc1`, for which the results for the ED50 in the experiment on Mus musculus [1] (setting [8]) and in the experiment on Mus musculus [2] were 0.4 mg/kg and above 30 mg/kg, respectively. The compound further showed a pKi in experiment [3] of 7.43.
As for `Br.O=[N+]([O-])c1ccc(C2CN3CCC[C@H]3c3ccccc32)cc1` (stereo not given in full), the values for the ED50 in the experiment with Mus musculus [1] (setting [8]) and with Mus musculus [2] were 0.14 mg/kg and 0.34 mg/kg, respectively. In addition, the pKi in experiment [3] was 7.03; in experiment [4], 8.47.
On to `Br.c1ccc(C2CN3CCCCCC3c3ccccc32)cc1` (stereo not given), for which the ED50 with Mus musculus [1] (setting [8]) is above 30 mg/kg; in the experiment on Mus musculus [2], 30 mg/kg. Also, the figures for the pKi in experiment [3], in experiment [5] and in experiment [4] were below 7.00, below 5.30 and 7.00, respectively.
Turning to `Br.COc1ccc(C2CN3CCC[C@H]3c3ccccc32)cc1` (stereo not given in full), the median effective dose (ED50) in the experiment on Mus musculus [1] (setting [8]) came out at 0.03 mg/kg; in the experiment with Mus musculus [2] it was 0.27 mg/kg. In addition, the values for the negative logarithm of the Ki (pKi) in experiment [3] and in experiment [4] were 8.28 and 9.10, respectively.
Consider `Br.Oc1ccc(C2CN3CCC[C@H]3c3ccccc32)cc1` (stereo not given in full), for which the figures for the ED50 in the experiment on Mus musculus [1] (setting [8]) and in the experiment with Mus musculus [2] were 0.09 mg/kg and 0.4 mg/kg, respectively. The pKi is 8.29 in experiment [3] and 9.13 in experiment [4].
Consider `Br.Clc1ccc(C2CN3CCC[C@H]3c3ccccc32)cc1` (stereo not given in full), for which the ED50 was 0.34 mg/kg with Mus musculus [1] (setting [8]) and 0.55 mg/kg with Mus musculus [2].
`Br.Oc1ccc(C2CN3CCC[C@H]3c3ccccc32)cc1O` (stereo not given in full): the ED50 amounted to 0.11 mg/kg in the experiment on Mus musculus [1] (setting [8]) and 0.19 mg/kg in the experiment with Mus musculus [2]. Also, the negative-log Ki (pKi) in experiment [3] was 8.00; in experiment [4], 9.09.
On the same counts, the results for `Br.COc1ccc(C2CN3CCC[C@H]3c3ccccc32)cc1OC` (stereo not given in full) are 0.11 mg/kg, 0.45 mg/kg, 7.14 and 8.47.
With `Cl.c1ccc(C2CN3CCC[C@H]3c3ccccc32)cc1` (single isomer, unassigned; (+)), the results for the ED50 with Mus musculus [1] (setting [8]) and in the experiment on Mus musculus [2] were 0.05 mg/kg and 0.59 mg/kg, respectively. Moreover, the pKi in experiment [3] is 8.36.
`Cl.c1ccc([C@H]2CN3CCC[C@H]3c3ccccc32)cc1` (stereo in doubt; 5a) came in with an ED50 in the experiment with Mus musculus [1] above 30 mg/kg. In addition, the pKi in experiment [3] was 6.80.
As for `Cl.c1ccc([C@H]2CN3CCC[C@H]3c3ccccc32)cc1` (stereo in doubt; (-)-5b), the ED50 in the experiment on Mus musculus [1] was 8.3 mg/kg; in the experiment with Mus musculus [2] it was above 30 mg/kg. Besides, in experiment [3], the pKi was 5.87.
For `CNCCCN1c2ccccc2CCc2ccccc21.Cl` [DESIPRAMINE HYDROCHLORIDE], the ED50 in the experiment on Mus musculus [6] came out at 0.07 mg/kg; in the experiment with Mus musculus [7], 0.05 mg/kg.
Take `COc1ccc2c(c1)CN(C)CC2c1ccc(Cl)c(Cl)c1` (stereo not given) [DICLOFENSINE]: the pKi was 7.84 in experiment [3] and 8.36 in experiment [4].
`CN(C)CCCN1c2ccccc2CCc2ccccc21.Cl` [IMIPRAMINE HYDROCHLORIDE]: the ED50 was determined as 0.98 mg/kg in the experiment with Mus musculus [1] (setting [8]) and 0.58 mg/kg with Mus musculus [2].
For `CN1CCN2c3ccccc3Cc3ccccc3C2C1` (stereo not given) [MIANSERIN], the ED50 with Mus musculus [1] (setting [8]) was 9.7 mg/kg; in the experiment on Mus musculus [2], above 30 mg/kg. Moreover, the pKi is below 5.00 in experiment [3] and 7.59 in experiment [4].
The compound `CN1Cc2c(N)cccc2C(c2ccccc2)C1` (stereo not given) [NOMIFENSINE] had a pKi in experiment [4] of 8.42.
